Where only a bound is given, the exact number is not on record here.

The melting point is the temperature of the solid-liquid transition. As for `Cc1cc(-c2cc(C(F)(F)F)n3ncc(-c4nc(-c5cnc(N)nc5)no4)c3n2)ccc1Cl`, the melting point worked out at 272 °C.

Molecule `O=C(O)c1cn(C2CC2)c2c(F)c(N3CCC3)c(F)cc2c1=O` gave a melting point of 289 to 293 °C.

In the case of `CCCCOc1c(OC)cc(C(=O)O)cc1[N+](=O)[O-]`, the melting point is 114 to 115 °C.

On to `O=C(N[C@H]1CC[C@H](CCN2CCN(c3nccc4c3OCC4)CC2)CC1)C(F)(F)F`, for which the melting point was 198 °C.

In turn, `COCCc1nc2c(N)nc3ccccc3c2n1CC(C)(C)CNC(=O)Nc1ccccc1` returned a melting point of 125 to 130 °C.

`O=C(N[C@@H](Cc1ccc(OCCc2coc(-c3ccccc3)n2)cc1)C(=O)O)c1ccc(Cl)cc1` returned a melting point of 158 to 161 °C.

With `CCOC(=O)Cc1cccc(N)c1`, the melting point stood at 135 °C.

Molecule `Cc1[nH]c(C(=O)N2CCN(c3ccccc3)CC2)c(C)c1-c1nc2ccc(C(=O)c3ccccc3)cc2[nH]1` came in with a melting point of 145 to 147 °C.

`CCc1cccc(CC)c1NCC(=O)NN` had a melting point of 71 to 73 °C.

In turn, `Cc1sc(N)c(C(=O)c2cccs2)c1C` yielded a melting point of 117 to 118 °C.

With `CCCCc1nc(C(O)CC)c(C(N)=O)n1Cc1ccc(-c2ccccc2C(=O)O)cc1` (configuration not stated), the melting point is over 120 °C.

For the molecule `Cc1occc1C(=S)Nc1ccc(Cl)c(C=NN2CCOCC2)c1`, the melting point is 142 to 143 °C.

The molecule `CCOC(=O)COc1ccc(Oc2ccc3cc(Cl)ccc3n2)cc1` gave a melting point of 95 °C.

The molecule `COC(=O)[C@H](CCCCNC(=O)c1ccc(C(=O)c2ccccc2)cc1)n1c2ccccc2c2ccccc21` gave a melting point of 65 °C.

Regarding `CCn1c2ccccc2c2cc(NC(C)=O)ccc21`, the melting point fell in the range of 195 to 197 °C.

For the molecule `Cc1cc(CCCCCOc2c(Cl)cc(C3=NCCO3)cc2Br)on1`, the melting point lay in the range of 41 to 42 °C.

Molecule `CC(=O)C(C#N)c1ccccc1` (configuration not stated) yielded a melting point of over 215 °C.

`Cc1cc(OCC(O)CNC(C)(C)C)ccc1C=O` (configuration not stated) yielded a melting point of 82 to 84 °C.

In turn, `COc1cc(NC(=O)C2C(=O)N(C)C(=O)N(C)C2=O)ccc1O` returned a melting point of 252 to 253 °C.

In turn, `O=[N+]([O-])c1cnc2ccc(Br)cn12` gave a melting point of 160 to 161 °C.

As to `CSC(=NCCN(C)C)NC#N`, the melting point fell in the range of 94 to 95 °C.

Regarding `COc1cc(NC(C)=O)c(Cl)cc1-c1nn(-c2ccc(C(F)(F)F)cc2)c(=O)o1`, the melting point lay in the range of 235 to 236 °C.

For the molecule `O=C(c1cccs1)N1CCc2cc(S(=O)(=O)n3cc(-c4ccccc4)[nH]c3=O)ccc21`, the melting point is 258 to 260 °C.

`CC(C)(C)C(O)C(Oc1ccc(Cl)cc1)n1ccnc1` (configuration not stated) registered a melting point of 145 to 147 °C.

`COc1ccc(C2C(C#N)=C(N)Oc3c2ccc2cccnc32)cc1OC` (configuration not stated) had a melting point of 118 to 120 °C.

`Cc1ccc2c(c1)c1c(CC(=O)N(C)C)nn(-c3ccccc3)c(=O)c1n2C`: the melting point was 209 to 210 °C.

Turning to `NC(=O)c1cc(NCc2cccc(F)c2)c([N+](=O)[O-])cc1[N+](=O)[O-]`, the melting point is 175 to 177 °C.

The molecule `COc1ccc(C2Sc3cccc4cccc(c34)N(CCN(C)C)C(=O)C2OC(C)=O)cc1` (configuration not stated) came in with a melting point of 111 to 112 °C.

`O=C(O)C(Cc1ccccc1)Oc1ccc(-c2ccc(-c3c(Cc4ccccc4)sc4ccccc34)cc2)cc1Br` (configuration not stated): the melting point fell in the range of 81 to 83 °C.

On to `N#CCc1ccccc1O`, for which the melting point is 118 °C.

`COc1cc(O)c(CN2CCc3cc(O)ccc3C2)c(OC)c1` displayed a melting point of 109 to 112 °C.

`CC(=O)NCC(=O)NCC1(S)C2CC3CC(C2)CC1C3` (configuration not stated): the melting point lay within 154 to 157 °C.

Consider `COc1ccc(-c2c[nH]c3cc(OC)c(OC)cc3c2=O)cc1`, for which the melting point is 310 to 311 °C.

`CCC(=O)Nc1c(C#N)cnn1-c1c(Cl)cc(Cl)c(Cl)c1Cl` had a melting point of 203 to 204 °C.

In turn, `O=C(O)C1=Cc2cc(-c3ccccc3)ccc2CC1` registered a melting point of 208 to 209 °C.

For `OC(COc1ccc2nncn2n1)CN1CCN(C(c2ccccc2)c2ccccc2)CC1` (configuration not stated), the melting point is 95 to 97 °C.

On to `CC(=O)Nc1nc(-c2ccc([N+](=O)[O-])cc2)c(C)[nH]1`, for which the melting point lay in the range of 230 to 235 °C.

`CSc1sc(-c2ncn(C)n2)c2c1C(=O)CC(C)(C)C2` displayed a melting point of 146 to 148 °C.

`Cc1ccc(C)n1CCNC(=O)CN(C)C` yielded a melting point of 63 to 65 °C.

For `CN(C)c1c(Cl)cc(C(O)C#Cc2ccc(C(=O)O)c(O)c2)cc1C(C)(C)C` (configuration not stated), the melting point is 175 °C.

`COc1cc(CC2(C#N)c3cc(Cl)c(Cl)cc3C=CN2C(=O)c2ccccc2)cc(OC)c1OC` (configuration not stated) yielded a melting point of 193 to 195 °C.

On to `Cc1nc2c(N)nc3ccc(OCc4ccccc4)cc3c2n1CCCCNC(=O)Nc1ccccc1`, for which the melting point was in the range of 202 to 204 °C.

The molecule `CN(Cc1cccs1)C(=O)C1(c2ccc(F)cc2)CCCC1` displayed a melting point of 72 to 75 °C.

For `COc1c(Cc2c[nH]cn2)cccc1C(N)=O`, the melting point worked out at 160 °C.

`CSc1cn(C)c2c(-c3ccccc3)csc2c1=O` returned a melting point of 204 to 206 °C.

`CCS(=O)c1nc(N2CCNCC2)c2sc3nc(-c4ccccc4)cc(C)c3c2n1` (configuration not stated) showed a melting point of 165 to 170 °C.

With `O=C(NCC1CCN(CC2COc3ccccc3O2)CC1)c1ccccn1` (configuration not stated), the melting point is 95 to 97 °C.

`CN(C)CCCn1c(=O)c(C#N)c(N2CCN(C(=O)c3cccs3)CC2)c2cccnc21` had a melting point of 176 °C.

`Cc1ccc(OC2=C(Oc3ccc([N+](=O)[O-])cc3)C(F)(F)C(F)(F)C2(F)F)cc1` yielded a melting point of 72 to 76 °C.

`Fc1ccc(C2NCCc3c2[nH]c2ccccc32)cc1F` (configuration not stated) yielded a melting point of 151 °C.

`CC1OC(n2cnc3c(N)nc(N)nc32)C(O)C1O` (configuration not stated): the melting point was in the range of 135 to 138 °C.

For `CNC(=O)c1cc(N[C@@H]2c3ccccc3C[C@H]2O)c2nc(C)c(C)n2c1` (relative stereo), the melting point lay within 143 to 144 °C.

With `COc1cc(C)c(CNCCc2ccc(O)cc2)cc1O`, the melting point lay within 122 to 124 °C.

In turn, `Cc1cc(C)c(S(=O)(=O)NC(C)CS)c(C)c1` (configuration not stated) displayed a melting point of 74 to 76 °C.

`CC(C)c1nc(CCOC(N)=O)n(Cc2ccccc2N)c1Sc1cc(Cl)cc(Cl)c1` had a melting point of 167 to 170 °C.

Consider `O=C(CCl)Nc1c(Cl)cccc1SSc1cccc(Cl)c1NC(=O)CCl`, for which the melting point was 188 to 189 °C.

In turn, `CC(Cl)(Cl)C(NC(=O)c1cccc(Cl)c1)Nc1c(Nc2cccnc2)c(=O)c1=O` (configuration not stated) returned a melting point of 202 to 204 °C.

Turning to `CCC(=O)OCc1ccc(-c2[nH]c(-c3cccc4ccccc34)nc2C(=O)Nc2nccs2)cc1`, the melting point is 281 to 283 °C.

In turn, `CCC(=O)N(C(=O)CC)c1nc2c(c(-c3ccccc3)cn2C)c(=O)n1C` displayed a melting point of 215 to 217 °C.

`C=C(C)COc1ccc(C=CC(=O)OCCCC)cc1` showed a melting point of 32 to 33 °C.

As for `O=S1(=O)c2cccc3cccc(c23)N1CCCCN1CCN(c2ccc(O)cc2)CC1`, the melting point amounted to 195 °C.

As for `CCCCc1nc2c(N)nc3c(c2n1CCNC(=O)c1cc(C(C)(C)C)c(O)c(C(C)(C)C)c1)NCCC3`, the melting point lay in the range of 208 to 210 °C.

`CC(Oc1ccccc1C(C)C)C(=O)OC1CC(O)C=C2C=CC(C)C(CCC3CC(O)CC(=O)O3)C21` (mixture of isomers) returned a melting point of 138 to 141 °C.

As to `COC=Nc1c(C#N)c(C)nn1-c1c(Cl)cc(C(F)(F)F)cc1Cl`, the melting point fell in the range of 75 to 78 °C.

Molecule `Cc1cccc([N+](=O)[O-])c1C(=O)Nc1nnn[nH]1` showed a melting point of 230 to 232 °C.

Take `COc1ccc(N)nc1C`: the melting point was in the range of 98 to 100 °C.

Molecule `Nc1nc(SSc2n[nH]c(N)n2)n[nH]1` displayed a melting point of 250 to 256 °C.

With `CC(C)(C)c1cc(OCc2cccc(C#N)c2)cc(C(C)(C)C)c1O`, the melting point was 78 to 81 °C.

Consider `CCC(CC)Nc1cc(C)nc(Oc2c(C)cc(Cl)cc2C)c1NC(C)=O`, for which the melting point lay in the range of 161 to 164 °C.

Consider `O=P(O)(O)C(F)(F)P(=O)(O)O`, for which the melting point lay in the range of 87 to 90 °C.

Turning to `CCOCCCOc1ccc2c(c1)C(N(CC)S(C)(=O)=O)CC(C)(C)O2` (configuration not stated), the melting point fell in the range of 72 to 74 °C.

The molecule `CC(C)Nc1c(-c2c(F)cc(F)cc2F)c(Cl)nc2nncn12` registered a melting point of 268 to 273 °C.

`N#CC=Cc1ccc(-c2ccccc2)cc1` yielded a melting point of 43.7 °C.

The molecule `O=C1OC(=O)c2c1cccc2N1C(=O)CCC1=O` yielded a melting point of 202 to 205 °C.

`CNC1Oc2cc(Cl)cc(-c3ccc(Cl)cc3C)c2O1` (configuration not stated) came in with a melting point of over 250 °C.

In turn, `COc1cc2c(cc1Nc1ncc(Cl)c(Nc3ccc(N4CCOCC4)cc3OC)n1)CCN(CC(=O)N(C)C)CC2` gave a melting point of 67 to 76 °C.

`O=C(CNC(=O)OCc1ccccc1)Nc1ccccc1C(=O)c1cccs1`: the melting point was 115 to 116 °C.

On to `Cc1nnc2ccc(-c3cccc(NC(=O)C4CCC4)c3)nn12`, for which the melting point fell in the range of 242 to 245 °C.

Molecule `c1ccc(-n2c(Cn3ccnc3)nc3cccnc32)cc1` displayed a melting point of 146 to 148 °C.

Molecule `O=C(Cc1ccc(Cl)cc1)Nc1cc(CC2SC(=O)NC2=O)ccc1O` (configuration not stated) yielded a melting point of 207 to 209 °C.

With `CCC(C)(CC)NC(=O)C1(O)CC(C)(C)NC(C)(C)C1`, the melting point lay in the range of 127 to 129 °C.

`Cc1nc(N2CCN(Cc3ccc(C#N)cc3)C2=O)sc1C(=O)NCc1ccccc1` registered a melting point of 176 to 178 °C.

Regarding `CC(C)(C)OC(=O)NCCNC(=O)Nc1ccccc1C(=O)NC1CCN(C(c2ccccc2)c2ccccc2)CC1`, the melting point was 226 to 228 °C.

Molecule `CCN(CC)Cc1nc2cc(OC)c(OC)cc2c(-c2ccc(OC)c(OC)c2)c1C(=O)CC(C)C` gave a melting point of 153 to 154 °C.

The molecule `Fc1ccc(-c2nn3c(-c4ccccc4)cc(-c4ccccc4)nc3c2-c2ccncc2)cc1` yielded a melting point of 243 to 245 °C.

With `COc1ccccc1[C@@]1(O)[C@H](O)CC(c2ccccc2)(c2ccccc2)[C@@H]2CN(C(=O)Cc3ccccc3N3CCCC3)C[C@@H]21` (racemic), the melting point turned out to be 236 °C.

Molecule `CN(Cc1ccc(C=CC(=O)O)cc1)S(=O)(=O)c1ccccc1` returned a melting point of 112 °C.

The values are drawn from a melting point compilation (Tetko et al.; mined from patent text by program, amines drawn as free bases though some values may be those of a salt).
